# According to patent US11046699B2, “Pyrazolo-pyrimidin-amino-cycloalkyl compounds and their therapeutic uses” (RAPT THERAPEUTICS, INC., priority 2018, dated 2021):
# Target: GCN2 (Homo sapiens, UniProt Q9P2K8)
# Test: GCN2 enzymatic endpoint assay: phosphorylation of GFP-eIF2α measured by TR-FRET (Lanthascreen)
# Format: biochemical
# Conditions: GCN2 biochemical IC50; 4 nM GCN2, 2 μM ATP, 80 nM GFP-eIF2α, 90 min RT; read-out: GCN2 activity
# Summary of the method: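 Phosphorylated eIF2α read by Lanthascreen TR-FRET (acceptor 520 nm over donor 495 nm) after EDTA stop. The reaction ran 90 min at room temperature on 80 nM GFP-eIF2α with 2 μM ATP.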
# Chain of GCN2 (Q9P2K8 whole entry): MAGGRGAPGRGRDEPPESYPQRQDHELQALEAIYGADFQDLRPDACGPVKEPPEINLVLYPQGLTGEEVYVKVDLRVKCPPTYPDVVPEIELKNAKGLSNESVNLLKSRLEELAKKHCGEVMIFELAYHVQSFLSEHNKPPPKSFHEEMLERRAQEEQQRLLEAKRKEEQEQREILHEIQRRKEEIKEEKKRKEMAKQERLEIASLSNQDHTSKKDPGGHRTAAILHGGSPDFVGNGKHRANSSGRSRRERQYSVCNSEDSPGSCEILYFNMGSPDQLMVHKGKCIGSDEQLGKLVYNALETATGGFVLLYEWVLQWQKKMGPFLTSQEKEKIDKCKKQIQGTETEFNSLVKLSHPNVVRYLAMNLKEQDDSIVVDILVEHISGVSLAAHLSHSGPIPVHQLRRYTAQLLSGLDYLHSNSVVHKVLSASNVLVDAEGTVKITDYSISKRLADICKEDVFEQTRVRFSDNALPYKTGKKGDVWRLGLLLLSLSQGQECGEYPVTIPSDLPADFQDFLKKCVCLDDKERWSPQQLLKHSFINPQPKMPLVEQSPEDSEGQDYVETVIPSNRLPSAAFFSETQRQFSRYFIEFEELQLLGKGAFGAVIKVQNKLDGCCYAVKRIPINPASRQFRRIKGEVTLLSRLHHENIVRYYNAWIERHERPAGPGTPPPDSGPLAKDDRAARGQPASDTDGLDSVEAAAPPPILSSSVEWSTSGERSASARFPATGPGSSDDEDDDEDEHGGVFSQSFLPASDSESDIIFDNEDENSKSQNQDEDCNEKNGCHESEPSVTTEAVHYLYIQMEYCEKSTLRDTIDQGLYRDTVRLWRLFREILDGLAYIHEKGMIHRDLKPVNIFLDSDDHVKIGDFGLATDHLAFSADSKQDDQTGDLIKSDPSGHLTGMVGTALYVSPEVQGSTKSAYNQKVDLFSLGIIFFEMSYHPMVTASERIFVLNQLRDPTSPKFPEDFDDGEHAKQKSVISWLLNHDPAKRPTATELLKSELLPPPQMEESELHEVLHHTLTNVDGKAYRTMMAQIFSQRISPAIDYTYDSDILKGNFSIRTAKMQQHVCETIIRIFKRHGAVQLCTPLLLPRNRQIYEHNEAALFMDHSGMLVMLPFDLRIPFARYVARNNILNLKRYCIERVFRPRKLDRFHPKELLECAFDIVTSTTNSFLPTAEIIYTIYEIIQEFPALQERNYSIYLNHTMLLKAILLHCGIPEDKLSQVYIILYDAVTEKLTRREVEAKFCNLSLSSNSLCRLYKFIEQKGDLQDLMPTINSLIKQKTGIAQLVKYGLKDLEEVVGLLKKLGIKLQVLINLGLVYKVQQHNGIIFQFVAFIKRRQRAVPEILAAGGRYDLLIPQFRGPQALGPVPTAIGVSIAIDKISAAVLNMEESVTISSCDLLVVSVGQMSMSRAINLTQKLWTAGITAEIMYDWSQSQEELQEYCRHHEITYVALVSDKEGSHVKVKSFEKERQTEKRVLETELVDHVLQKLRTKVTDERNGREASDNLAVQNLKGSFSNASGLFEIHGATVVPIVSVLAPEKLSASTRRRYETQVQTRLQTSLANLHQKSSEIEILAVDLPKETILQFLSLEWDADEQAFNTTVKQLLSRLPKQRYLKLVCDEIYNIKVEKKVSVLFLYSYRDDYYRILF
row,IC50 [nM],Compound
1,< 25,"COCCNC(=O)[C@@H]1CC[C@@H](Nc2ncc3c(Cl)nn(-c4ccc5ncccc5c4)c3n2)C1 [Example 14, (1R,3R)-3-((3-chloro-1-(quinolin-6-yl)-1H-pyrazolo[3,4-d]pyrimidin-6-yl)amino)-N-(2-methoxyethyl)cyclopentane-1-carboxamide]"

# Same assay, conditions: tested as described in Example 77; compound and/or hydrochloride, dihydrochloride or trifluoroacetic acid salt; read-out: IC 50 Activity
row,Compound,IC50 [nM]
1,"COCCNC(=O)[C@@H]1CC[C@@H](Nc2ncc3c(Br)nn(-c4ccc(-c5ccncc5)cc4)c3n2)C1 [(1R,3R)-3-((3-bromo-1-(4-(pyridin-4-yl)phenyl)-1H-pyrazolo[3,4-d]pyrimidin-6-yl)amino)-N-(2-methoxyethyl)cyclopentane-1-carboxamide]",500 to 1000
2,"CNC(=O)C1(C)CC[C@@H](Nc2ncc3c(Br)nn(-c4ccc5nc(C(C)(C)O)ccc5c4)c3n2)C1 (stereo partly drawn) [(3R)-3-[[3-bromo-1-[2-(1-hydroxy-1-methyl-ethyl)-6-quinolyl]pyrazolo[3,4-d]pyrimidin-6-yl]amino]-N,1-dimethyl-cyclopentane-carboxamide]",25 to 200
3,"C[C@@]1(C(=O)N2CCN3C(=O)CC[C@H]3C2)CC[C@@H](Nc2ncc3c(Br)nn(-c4cc(F)c5ncccc5c4)c3n2)C1 [(8aS)-2-[(1R,3R)-3-[[3-bromo-1-(8-fluoro-6-quinolyl)pyrazolo[3,4-d]pyrimidin-6-yl]amino]-1-methyl-cyclopentanecarbonyl]-1,3,4,7,8,8a-hexahydropyrrolo[1,2-a]pyrazin-6-one]",25 to 200
4,CNC(=O)[C@]1(C)CC[C@@H](Nc2ncc3c(Br)nn(-c4cc(C#N)cc(CS(C)(=O)=O)c4)c3n2)C1,25 to 200
5,Cc1nnc(-c2ccc(-n3nc(Br)c4cnc(N[C@@H]5CC[C@@](C)(N(C)C)C5)nc43)cc2)s1,25 to 200
6,"CNC(=O)[C@H]1CC[C@@H](Nc2ncc3c(Br)nn(-c4cnc5c(C#N)cccc5c4)c3n2)C1 [(1S,3R)-3-[[3-bromo-1-(8-cyano-3-quinolyl)pyrazolo[3,4-d]pyrimidin-6-yl]amino]-N-methyl-cyclopentanecarboxamide]",25 to 200
7,"CNC(=O)[C@]1(C)CC[C@@H](Nc2ncc3c(Br)nn(-c4cc(Cl)cc(CC#N)c4)c3n2)C1 [(1R,3R)-3-[[3-bromo-1-[3-chloro-5-(cyanomethyl)phenyl]pyrazolo[3,4-d]pyrimidin-6-yl]amino]-N,1-dimethyl-cyclopentanecarboxamide]",25 to 200
8,CNS(=O)(=O)C1CC[C@@H](Nc2ncc3c(Br)nn(-c4cc(Cl)cc([C@H](C)N)c4)c3n2)C1 (stereo partly shown),25 to 200
9,"CNC(=O)[C@]1(C)CC[C@@H](Nc2ncc3c(Br)nn(-c4cc(CN5C(=O)CNC5=O)c5ncccc5c4)c3n2)C1 [(1R,3R)-3-[[3-bromo-1-[8-[(2,5-dioxo-imidazolidin-1-yl)methyl]-6-quinolyl]pyrazolo[3,4-d]pyrimidin-6-yl]amino]-N,1-dimethyl-cyclopentanecarboxamide]",25 to 200
10,"CNC(=O)[C@]1(C)CC[C@@H](Nc2ncc3c(Br)nn(-c4ccc(-c5nnc(C(C)(C)O)o5)cc4)c3n2)C1 [(1R,3R)-3-[[3-bromo-1-[4-[5-(1-hydroxy-1-methyl-ethyl)-1,3,4-oxadiazol-2-yl]phenyl]pyrazolo[3,4-d]pyrimidin-6-yl]amino]-N,1-dimethyl-cyclopentanecarboxamide]",25 to 200
11,"CNC(=O)[C@]1(C)CC[C@@H](Nc2ncc3c(Br)nn(-c4ccc(-c5ncco5)c(CNCC(F)F)c4)c3n2)C1 [(1R,3R)-3-[[3-bromo-1-[3-[(2,2-difluoroethylamino)methyl]-4-oxazol-2-yl-phenyl]pyrazolo[3,4-d]pyrimidin-6-yl]amino]-N,1-dimethyl-cyclopentane-carboxamide]",25 to 200
12,CNC(=O)[C@]1(C)CC[C@@H](Nc2ncc3c(Br)nn(-c4ccc5nc(N6CCNCC6)ncc5c4)c3n2)C1,< 25
13,"CNC(=O)[C@]1(C)CC[C@@H](Nc2ncc3c(Br)nn(-c4ccc5c(c4)NC(=O)COC5)c3n2)C1 [(1R,3R)-3-[[3-bromo-1-(2-oxo-1,5-dihydro-4,1-benzoxazepin-8-yl)pyrazolo[3,4-d]pyrimidin-6-yl]amino]-N,1-dimethyl-cyclopentanecarboxamide]",25 to 200

# Now from value to compound:
row,IC50 [nM],Compound
1,25 to 200,"CNC(=O)[C@]1(C)CC[C@@H](Nc2ncc3c(Br)nn(-c4cc(CS(C)(=O)=O)c5nccnc5c4)c3n2)C1 [(1R,3R)-3-[[3-bromo-1-[8-(methyl-sulfonylmethyl)quinoxalin-6-yl]pyrazolo [3,4-d]pyrimidin-6-yl]amino]-N,1-dimethyl-cyclopentanecarboxamide]"
2,< 25,"CNC(=O)[C@]1(C)CC[C@@H](Nc2ncc3c(Br)nn(-c4ccc(-c5nnc(C(C)CO)o5)cc4)c3n2)C1 (stereo partly drawn) [(1R,3R)-3-[[3-bromo-1-[4-[5-(2-hydroxy-1-methyl-ethyl)-1,3,4-oxadiazol-2-yl]phenyl]pyrazolo[3,4-d]pyrimidin-6-yl]amino]-N,1-dimethyl-cyclopentane-carboxamide]"
3,25 to 200,"CNC(=O)[C@]1(C)CC[C@@H](Nc2ncc3c(Br)nn(-c4cc(C#N)cc(CO)c4)c3n2)C1 [(1R,3R)-3-[[3-bromo-1-[3-cyano-5-(hydroxymethyl)phenyl]pyrazolo[3,4-d]pyrimidin-6-yl]amino]-N,1-dimethyl-cyclopentanecarboxamide]"
4,25 to 200,"CNS(=O)(=O)C1CC[C@@H](Nc2ncc3c(Br)nn(-c4ccc(-c5nnc(C)s5)c(CCC#N)c4)c3n2)C1 (stereo partly drawn) [(3R)-3-[[3-bromo-1-[3-(2-cyanoethyl)-4-(5-methyl-1,3,4-thiadiazol-2-yl)phenyl]pyrazolo[3,4-d]pyrimidin-6-yl]amino]-N-methyl-cyclopentanesulfonamide]"
5,< 25,"CNC(=O)[C@]1(C)CC[C@@H](Nc2ncc3c(Br)nn(-c4cc(C#N)cc(OCC5CNC5)c4)c3n2)C1 [(1R,3R)-3-[[1-[3-(azetidin-3-ylmethoxy)-5-cyano-phenyl]-3-bromo-pyrazolo[3,4-d]pyrimidin-6-yl]amino]-N,1-dimethyl-cyclopentanecarboxamide]"
6,25 to 200,"O=C([C@@H]1CC[C@@H](Nc2ncc3c(Br)nn(-c4cc(F)c5ncccc5c4)c3n2)C1)N1CCNC(C(F)(F)F)C1 (stereo partly drawn) [[(1R,3R)-3-[[3-bromo-1-(8-fluoro-6-quinolyl)pyrazolo[3,4-d]pyrimidin-6-yl]amino]cyclo-pentyl]-[3-(trifluoromethyl)piperazin-1-yl] methanone]"
7,25 to 200,"CNC(=O)[C@]1(C)CC[C@@H](Nc2ncc3c(Br)nn(-c4ccc5nccc(P(C)(C)=O)c5c4)c3n2)C1 [(1R,3R)-3-[[3-bromo-1-(4-dimethyl-phosphoryl-6-quinolyl)pyrazolo[3,4-d]pyrimidin-6-yl]amino]-N,1-dimethyl-cyclopentanecarboxamide]"
8,25 to 200,"CC1(CNC(=O)[C@@H]2CC[C@@H](Nc3ncc4c(Br)nn(-c5cc(F)c6ncccc6c5)c4n3)C2)COC1 [(1R,3R)-3-((3-bromo-1-(8-fluoroquinolin-6-yl)-1H-pyrazolo[3,4-d]pyrimidin-6-yl)amino)-N-((3-methyloxetan-3-yl)methyl)cyclopentane-1-carboxamide]"
9,25 to 200,"CNC(=O)[C@]1(C)CC[C@@H](Nc2ncc3c(Br)nn(-c4ccc5c(c4)CCN(C(=O)C4CN(C)C4)C5)c3n2)C1 [(1R,3R)-3-[[3-bromo-1-[2-(1-methylazetidine-3-carbonyl)-3,4-dihydro-1H-isoquinolin-6-yl]pyrazolo[3,4-d]pyrimidin-6-yl]amino]-N,1-dimethyl-cyclopentanecarboxamide]"
10,25 to 200,"CNC(=O)[C@]1(CC(F)F)CC[C@@H](Nc2ncc3c(Br)nn(-c4cc(CC(C)(C)O)c5ncccc5c4)c3n2)C1 [(1R,3R)-3-[[3-bromo-1-[8-(2-hydroxy-2-methyl-propyl)-6-quinolyl]pyrazolo[3,4-d]pyrimidin-6-yl]amino]-1-(2,2-difluoroethyl)-N-methyl-cyclopentanecarboxamide]"
11,25 to 200,"CNC(=O)[C@]1(C)CC[C@@H](Nc2ncc3c(Br)nn(-c4cnc5c(CCCN)cccc5c4)c3n2)C1 [(1R,3R)-3-[[1-[8-(3-aminopropyl)-3-quinolyl]-3-bromo-pyrazolo[3,4-d]pyrimidin-6-yl]amino]-N,1-dimethyl-cyclopentanecarboxamide]"
12,25 to 200,"CNC(=O)[C@]1(CC(F)F)CC[C@@H](Nc2ncc3c(Br)nn(-c4ccc(-c5nnc(C)o5)cc4)c3n2)C1 [(1R,3R)-3-[[3-bromo-1-[4-(5-methyl-1,3,4-oxadiazol-2-yl)phenyl]pyrazolo[3,4-d]pyrimidin-6-yl]amino]-1-(2,2-difluoroethyl)-N-methyl-cyclopentanecarboxamide]"
13,25 to 200,"CNC(=O)C1(C)CC[C@@H](Nc2ncc3c(Br)nn(-c4ccc(-c5cnccn5)cc4)c3n2)C1 (stereo partly drawn) [(3R)-3-[[3-bromo-1-(4-pyrazin-2-ylphenyl)pyrazolo[3,4-d]pyrimidin-6-yl]amino]-N,1-dimethyl-cyclopentanecarboxamide]"
14,< 25,"CNC(=O)C1(C)CC[C@@H](Nc2ncc3c(Br)nn(-c4cc(Cl)cc(C(N)=O)c4)c3n2)C1 (stereo partly drawn) [3-[3-bromo-6-[[(1R)-3-methyl-3-(methylcarbamoyl)cyclopentyl]amino]pyrazolo[3,4-d]pyrimidin-1-yl]-5-chloro-benzamide]"
15,25 to 200,"N#Cc1cc(-n2nc(Br)c3cnc(N[C@@H]4CC[C@@H](C(=O)N5CC(N6CCC(F)(F)C6)C5)C4)nc32)cc2cccnc12 [6-(3-bromo-6-(((1R,3R)-3-(3-(3,3-difluoro-pyrrolidin-1-yl)azetidine-1-carbonyl)cyclo-pentyl)amino)-1H-pyrazolo[3,4-d]pyrimidin-1-yl)quinoline-8-carbonitrile]"
16,25 to 200,"COCCNS(=O)(=O)[C@@H]1CC[C@@H](Nc2ncc3c(Br)nn(-c4ccc5ncccc5c4)c3n2)C1 [(1R,3R)-3-((3-bromo-1-(quinolin-6-yl)-1H-pyrazolo[3,4-d]pyrimidin-6-yl)amino)-N-(2-methoxyethyl)cyclopentane-1-sulfonamide]"
17,< 25,"CNC(=O)[C@]1(C)CC[C@@H](Nc2ncc3c(Br)nn(-c4cc(CCC#N)c5ncccc5c4)c3n2)C1 [(1R,3R)-3-[[3-bromo-1-[8-(2-cyanoethyl)-6-quinolyl]pyrazolo[3,4-d]pyrimidin-6-yl]amino]-N,1-dimethyl-cyclopentane-carboxamide]"
